Test results published in US20040067222A1, “Regulation of glucocorticoid concentration” (priority 2001, published 2004).

Experiments:
[1] = test system: murine peripheral macrophages; assay: Phagocytosis by murine peripheral macrophages (FIG. 3); format: cell-based; conditions: for phagocytosis performance of macrophages: over 24 hours
Protocol: (§1) Fresh PMN were isolated from peripheral blood and aged to apoptosis in Teflon wells over 24 hrs in Iscoves/10% autologous serum. Mφ were treated with glucocorticoids as described in the figures. Mφ and aPMN were washed with 1×PBS and interacted in serum free Iscoves for 30 mins at 37° C. The cell layer was gently washed to remove […] cells, fixed in 1×Formalin and stained with PMN selective myeloperoxidase.

[2] = molecular target: T1, 11β-HSD1 (Mus musculus, UniProt P50172); assay: Conversion of 3H-11-dehydrocorticosterone to corticosterone in macrophage cultures (FIG. 2b, 2c); format: cell-based
T1 construct: endogenous in cells; host or cells: mouse macrophages (probably thioglycollate-elicited peritoneal macrophages from C57Bl/6 mice)
Excerpt: (§2) Samples were taken at different times and ^3H-cort and ^3H-11-DHC were separated from media samples by thin layer chromatography and analysed by phosphorimaging.

[3] = test system: 11β-HSD-1; assay: 11β-reductase activity in human monocytes differentiating into macrophages, incubated with IL-4 (FIG. 8); format: cell-based; conditions: range of doses of IL-4, human monocytes at initiation of differentiation
Excerpt: Human Monocytes—monocytes isolated from peripheral blood by dextran sedimentation and percoll gradient methods. Monocytes were differentiated to Mφ @4×10^6 cells/ml over 4 days in Iscoves/10% autologous serum.
as §2
The manner in which differentiating macrophages acquire 11β-HSD-1 activity can be influenced by cytokines. In the experiment shown in FIG. 8, human monocytes at the initiation of differentiation into macrophages were incubated with a range of doses of IL-4. 11β-reductase activity was measured by incubation with tritiated 11-DHC.

[4] = test system: blood glucose levels; conditions: oral administration, two mouse models of diabetes; cited from earlier work
[5] = test system: murine BMD Mφ; assay: Phagocytosis of apoptotic PMN by BMD Mφ from control and 11β-HSD-/- mice (FIG. 4); format: cell-based; conditions: for enhanced phagocytic effect in 11βHSD-1-/- Mφ: 11βHSD-1-/- macrophages versus control; for phagocytosis of apoptotic PMN by BMD Mφ: 48 hrs treatment, n=4/group
Protocol: Bone Marrow Derived Macrophages (BMD Mφ)—bone marrow was extracted from femurs (C57BI/6 mice) and cultured @4×10^5 cells/ml in DMEM/10% FCS/10% L929 cell line supernatant for 8 days.
as §1
Transgenic 11β-HSD^−/− mice have been described previously (Kotelevstev et al., PNAS (USA) 94:14924-14929). Macrophages are isolated from control and 11β-HSD^−/− mice and assayed in a PMN phagocytosis assay as described above.

T1 sequence (P50172 whole entry): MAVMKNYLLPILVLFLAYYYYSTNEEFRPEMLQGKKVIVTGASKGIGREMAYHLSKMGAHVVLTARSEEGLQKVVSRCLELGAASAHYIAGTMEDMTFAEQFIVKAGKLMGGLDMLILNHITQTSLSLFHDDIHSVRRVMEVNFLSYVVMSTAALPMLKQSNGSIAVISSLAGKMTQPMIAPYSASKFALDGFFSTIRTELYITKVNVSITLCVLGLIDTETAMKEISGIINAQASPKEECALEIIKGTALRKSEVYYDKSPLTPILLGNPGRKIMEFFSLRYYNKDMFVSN

Molecule	phagocytosis performance of macrophages [1]	enhanced phagocytic effect in 11βHSD-1-/- Mφ [5]	phagocytosis of apoptotic PMN by BMD Mφ [5]	also measured
CC1(C)[C@@H](OC(=O)CCC(=O)O)CC[C@]2(C)[C@H]3C(=O)C=C4[C@@H]5C[C@@](C)(C(=O)O)CC[C@]5(C)CC[C@@]4(C)[C@]3(C)CC[C@@H]12 [carbenoxolone]				effect of inactive 11-dehydrocorticosterone on phagocytosis in the presence of the inhibitor ([1]; macrophages incubated with 11-dehydrocorticosterone plus carbenoxolone): completely abolishes; effect on conversion of (A) to (B) by 11β-HSD1 ([2]; high concentrations of carbenoxolone): can be blocked
IL-4: cytokine capable of inducing 11β-HSD 1 expression				conversion of inert 11-DHC to active corticosterone (11β-reductase activity) [3]: dose-relatedly increased
C=CC(C)(C)c1[nH]c2ccccc2c1C1=C(O)C(=O)C(c2c[nH]c3c(CC=C(C)C)cccc23)=C(O)C1=O [L-783,281]				blood glucose levels [4]: significant lowering
C[C@]12C[C@H](O)[C@H]3[C@@H](CCC4=CC(=O)CC[C@@]43C)[C@@H]1CC[C@@H]2C(=O)CO [corticosterone]	two-fold	no effect	enhancement of phagocytosis	
C[C@]12CC(=O)[C@H]3[C@@H](CCC4=CC(=O)CC[C@@]43C)[C@@H]1CC[C@@H]2C(=O)CO [11-dehydrocorticosterone]	two-fold	abrogated	enhancement of phagocytosis	conversion of inactive 11-dehydrocorticosterone (A) to active corticosterone (B) ([2]; mouse macrophages, over a 24 hour period): clearly shows conversion of (A) to (B)
